{"source": "paper PMC5569891", "about": "(Chembiochem : a European journal of chemical biology, 2017)", "target": "T1, HsSQS (Homo sapiens, UniProt P37268)", "T1 sequence (P37268 1-417)": "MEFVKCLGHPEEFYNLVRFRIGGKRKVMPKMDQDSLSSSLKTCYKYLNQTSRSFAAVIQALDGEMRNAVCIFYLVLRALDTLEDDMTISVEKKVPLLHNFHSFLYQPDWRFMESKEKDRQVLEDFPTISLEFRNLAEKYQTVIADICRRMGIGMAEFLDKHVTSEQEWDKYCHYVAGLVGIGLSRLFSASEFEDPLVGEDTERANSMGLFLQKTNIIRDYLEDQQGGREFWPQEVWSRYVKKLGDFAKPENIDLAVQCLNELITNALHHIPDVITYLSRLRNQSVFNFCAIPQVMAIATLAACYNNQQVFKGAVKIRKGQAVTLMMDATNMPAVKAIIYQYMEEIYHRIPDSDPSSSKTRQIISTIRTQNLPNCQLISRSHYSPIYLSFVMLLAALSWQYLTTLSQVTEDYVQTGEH", "assay": "LC-MS of products", "format": "biochemical", "conditions": "no NADPH", "data": [{"smiles": "CC(C)=CCC/C(C)=C/CC/C(C)=C/COP(=O)(O)OP(=O)(O)O", "note": "[compound 1, farnesyl diphosphate]", "values": [{"measurement": "LC-MS of products (PSPP)", "value": "LC-MS traces showing reaction products of NmHpnD+FPP (in blue) and HsSQS+FPP (in red)"}]}]}
